Results taken from PubChem BioAssay AID1963828 (Molecular Pharmacology Branch, DTP, NCI, 2024).

System: 991263-137-R1-J2-PDC complex spheroid viability
Assay: Anticancer human tumor 991263-137-R1-J2-PDC patient-derived colon adenocarcinoma cell line growth inhibition [POLQ]
Settings: for IC50: curve of first compound; for viability, T/C: stronger effect = lower value
How it was run: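 PDC + HUVEC + MSC complex spheroids; POLQ inhibitors ± partner drugs; top conc. at/near clinical Cmax, else 10 microM (SN-38 1 microM), half-log dilutions; 37 degrees C, 5% CO2.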

[1] = second compound 0.0316 µM, first compound 0.0316 µM
[2] = second compound 0.0316 µM, first compound 0.1 µM
[3] = second compound 0.0316 µM, first compound 0.316 µM
[4] = second compound 0.0316 µM, first compound 1 µM
[5] = second compound 0.0316 µM, first compound 3.16 µM
[6] = second compound 0.0316 µM, first compound 10 µM
[7] = second compound 0.1 µM, first compound 0.0316 µM
[8] = second compound 0.1 µM, first compound 0.1 µM
[9] = second compound 0.1 µM, first compound 0.316 µM
[10] = second compound 0.1 µM, first compound 1 µM
[11] = second compound 0.1 µM, first compound 3.16 µM
[12] = second compound 0.1 µM, first compound 10 µM
[13] = second compound 0.316 µM, first compound 0.0316 µM
[14] = second compound 0.316 µM, first compound 0.1 µM
[15] = second compound 0.316 µM, first compound 0.316 µM
[16] = second compound 0.316 µM, first compound 1 µM
[17] = second compound 0.316 µM, first compound 3.16 µM
[18] = second compound 0.316 µM, first compound 10 µM
[19] = second compound 1 µM, first compound 0.0316 µM
[20] = second compound 1 µM, first compound 0.1 µM
[21] = second compound 1 µM, first compound 0.316 µM
[22] = second compound 1 µM, first compound 1 µM
[23] = second compound 1 µM, first compound 3.16 µM
[24] = second compound 1 µM, first compound 10 µM
[25] = second compound 3.16 µM, first compound 0.0316 µM
[26] = second compound 3.16 µM, first compound 0.1 µM
[27] = second compound 3.16 µM, first compound 0.316 µM
[28] = second compound 3.16 µM, first compound 1 µM
[29] = second compound 3.16 µM, first compound 3.16 µM
[30] = second compound 3.16 µM, first compound 10 µM
[31] = second compound 10 µM, first compound 0.0316 µM
[32] = second compound 10 µM, first compound 0.1 µM
[33] = second compound 10 µM, first compound 0.316 µM
[34] = second compound 10 µM, first compound 1 µM
[35] = second compound 10 µM, first compound 3.16 µM
[36] = second compound 10 µM, first compound 10 µM
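Also: spheroids exposed to compounds for 7 days before readout.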
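For viability, T/C in this document: 100% = DMSO vehicle control viability.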

Nc1ccn(C2OC(CO)C(O)C2(F)F)c(=O)n1 (stereo not drawn) + Cc1cccc(N(C)C(=O)C2C(O)CCN2c2nc(C)cc(C(F)(F)F)c2C#N)c1
IC50 (second compound 0.0316 µM): 873 nM | IC50 (second compound 0.1 µM): 1310 nM | IC50 (second compound 0.316 µM): 1150 nM | IC50 (second compound 1 µM): 1910 nM | IC50 (second compound 3.16 µM): 3040 nM | IC50 (second compound 10 µM): 2030 nM | viability, T/C [1]: 85.6% | viability, T/C [2]: 74.6% | viability, T/C [3]: 57.2% | viability, T/C [4]: 48% | viability, T/C [5]: 52.4% | viability, T/C [6]: 42.4% | viability, T/C [7]: 99.4% | viability, T/C [8]: 66.4% | viability, T/C [9]: 60.6% | viability, T/C [10]: 62.4% | viability, T/C [11]: 40.3% | viability, T/C [12]: 41.5% | viability, T/C [13]: 82.6% | viability, T/C [14]: 70.5% | viability, T/C [15]: 54.9% | viability, T/C [16]: 52.6% | viability, T/C [17]: 48.4% | viability, T/C [18]: 38.5% | viability, T/C [19]: 75.6% | viability, T/C [20]: 63.8% | viability, T/C [21]: 53.1% | viability, T/C [22]: 50% | viability, T/C [23]: 53.6% | viability, T/C [24]: 46% | viability, T/C [25]: 69.2% | viability, T/C [26]: 64.2% | viability, T/C [27]: 54.7% | viability, T/C [28]: 54% | viability, T/C [29]: 53.2% | viability, T/C [30]: 45% | viability, T/C [31]: 80.2% | viability, T/C [32]: 70.3% | viability, T/C [33]: 63.5% | viability, T/C [34]: 49.6% | viability, T/C [35]: 51.8% | viability, T/C [36]: 41.5%

CNCc1ccc(-c2[nH]c3cc(F)cc4c3c2CCNC4=O)cc1 + COC1C(OC(N)=O)C(O)C(Oc2ccc3c(O)c(NC(=O)c4ccc(O)c(CC=C(C)C)c4)c(=O)oc3c2C)OC1(C)C
IC50 (second compound 0.0316 µM): > 10000 nM | IC50 (second compound 0.1 µM): > 10000 nM | IC50 (second compound 0.316 µM): > 10000 nM | IC50 (second compound 1 µM): > 10000 nM | IC50 (second compound 3.16 µM): > 10000 nM | IC50 (second compound 10 µM): > 10000 nM | viability, T/C [1]: 85.7% | viability, T/C [2]: 101% | viability, T/C [3]: 94% | viability, T/C [4]: 97.1% | viability, T/C [5]: 121% | viability, T/C [6]: 103% | viability, T/C [7]: 106% | viability, T/C [8]: 104% | viability, T/C [9]: 109% | viability, T/C [10]: 98.5% | viability, T/C [11]: 101% | viability, T/C [12]: 95.9% | viability, T/C [13]: 105% | viability, T/C [14]: 91.6% | viability, T/C [15]: 106% | viability, T/C [16]: 100% | viability, T/C [17]: 99.6% | viability, T/C [18]: 98.5% | viability, T/C [19]: 82.1% | viability, T/C [20]: 111% | viability, T/C [21]: 117% | viability, T/C [22]: 104% | viability, T/C [23]: 110% | viability, T/C [24]: 97.3% | viability, T/C [25]: 92.2% | viability, T/C [26]: 112% | viability, T/C [27]: 111% | viability, T/C [28]: 106% | viability, T/C [29]: 119% | viability, T/C [30]: 102% | viability, T/C [31]: 107% | viability, T/C [32]: 110% | viability, T/C [33]: 105% | viability, T/C [34]: 102% | viability, T/C [35]: 119% | viability, T/C [36]: 106%

CC[C@@]1(O)C(=O)OCc2c1cc1n(c2=O)Cc2cc3c(CN(C)C)c(O)ccc3nc2-1 + Nc1ccc(C#CCN(C(=O)Cc2ncc(C(F)(F)F)cc2C(F)(F)F)c2ccc(F)cc2)nn1
IC50 (second compound 0.0316 µM): > 100 nM | IC50 (second compound 0.1 µM): > 100 nM | IC50 (second compound 0.316 µM): > 100 nM | IC50 (second compound 1 µM): > 100 nM | IC50 (second compound 3.16 µM): > 100 nM | IC50 (second compound 10 µM): > 100 nM | viability, T/C (second compound 0.0316 µM, first compound 0.000316 µM): 94.8% | viability, T/C (second compound 0.0316 µM, first compound 0.001 µM): 92.6% | viability, T/C (second compound 0.0316 µM, first compound 0.00316 µM): 92.4% | viability, T/C (second compound 0.0316 µM, first compound 0.01 µM): 101% | viability, T/C [1]: 99.8% | viability, T/C [2]: 80.2% | viability, T/C (second compound 0.1 µM, first compound 0.000316 µM): 111% | viability, T/C (second compound 0.1 µM, first compound 0.001 µM): 102% | viability, T/C (second compound 0.1 µM, first compound 0.00316 µM): 101% | viability, T/C (second compound 0.1 µM, first compound 0.01 µM): 94.6% | viability, T/C [7]: 101% | viability, T/C [8]: 79.8% | viability, T/C (second compound 0.316 µM, first compound 0.000316 µM): 108% | viability, T/C (second compound 0.316 µM, first compound 0.001 µM): 109% | viability, T/C (second compound 0.316 µM, first compound 0.00316 µM): 95.4% | viability, T/C (second compound 0.316 µM, first compound 0.01 µM): 107% | viability, T/C [13]: 104% | viability, T/C [14]: 76.8% | viability, T/C (second compound 1 µM, first compound 0.000316 µM): 104% | viability, T/C (second compound 1 µM, first compound 0.001 µM): 106% | viability, T/C (second compound 1 µM, first compound 0.00316 µM): 101% | viability, T/C (second compound 1 µM, first compound 0.01 µM): 101% | viability, T/C [19]: 101% | viability, T/C [20]: 84.3% | viability, T/C (second compound 3.16 µM, first compound 0.000316 µM): 102% | viability, T/C (second compound 3.16 µM, first compound 0.001 µM): 94.9% | viability, T/C (second compound 3.16 µM, first compound 0.00316 µM): 105% | viability, T/C (second compound 3.16 µM, first compound 0.01 µM): 93.1% | viability, T/C [25]: 93.6% | viability, T/C [26]: 65.6% | viability, T/C (second compound 10 µM, first compound 0.000316 µM): 102% | viability, T/C (second compound 10 µM, first compound 0.001 µM): 112% | viability, T/C (second compound 10 µM, first compound 0.00316 µM): 107% | viability, T/C (second compound 10 µM, first compound 0.01 µM): 88.1% | viability, T/C [31]: 91.1% | viability, T/C [32]: 66.6%

C=CC(=O)N1CCN(c2nc(=O)n(-c3c(C)ccnc3C(C)C)c3nc(-c4c(O)cccc4F)c(F)cc23)C(C)C1 (stereo not drawn) + Cc1cccc(N(C)C(=O)C2C(O)CCN2c2nc(C)cc(C(F)(F)F)c2C#N)c1
IC50 (second compound 0.0316 µM): > 10000 nM | IC50 (second compound 0.1 µM): > 10000 nM | IC50 (second compound 0.316 µM): > 10000 nM | IC50 (second compound 1 µM): > 10000 nM | IC50 (second compound 3.16 µM): > 10000 nM | IC50 (second compound 10 µM): > 10000 nM | viability, T/C [1]: 104% | viability, T/C [2]: 109% | viability, T/C [3]: 93.5% | viability, T/C [4]: 103% | viability, T/C [5]: 114% | viability, T/C [6]: 115% | viability, T/C [7]: 114% | viability, T/C [8]: 112% | viability, T/C [9]: 102% | viability, T/C [10]: 90.5% | viability, T/C [11]: 116% | viability, T/C [12]: 107% | viability, T/C [13]: 97.6% | viability, T/C [14]: 107% | viability, T/C [15]: 102% | viability, T/C [16]: 90.3% | viability, T/C [17]: 120% | viability, T/C [18]: 104% | viability, T/C [19]: 88% | viability, T/C [20]: 117% | viability, T/C [21]: 107% | viability, T/C [22]: 81.7% | viability, T/C [23]: 115% | viability, T/C [24]: 124% | viability, T/C [25]: 98.7% | viability, T/C [26]: 118% | viability, T/C [27]: 95.7% | viability, T/C [28]: 91.7% | viability, T/C [29]: 123% | viability, T/C [30]: 107% | viability, T/C [31]: 101% | viability, T/C [32]: 107% | viability, T/C [33]: 108% | viability, T/C [34]: 116% | viability, T/C [35]: 116% | viability, T/C [36]: 103%
